Data as given in doi:10.1101/2020.06.11.145995v1 (biorxiv, 2020).
Read-outs that look alike come from different tables or passages of the source.

Assays:
Assay in all cases: biochemical
[1] = target: ADCK4 (Homo sapiens, UniProt Q96D53)
[2] = target: AKT3 (Homo sapiens, UniProt Q9Y243)
[3] = target: ALK (Homo sapiens, UniProt Q9UM73)
[4] = target: AMPK-alpha1 (Homo sapiens, UniProt Q13131)
[5] = target: BIKE (Homo sapiens, UniProt Q9NSY1)
[6] = target: CDC2L5 (Homo sapiens, UniProt Q14004)
[7] = target: CDK2 (Homo sapiens, UniProt P24941)
[8] = target: CDK3 (Homo sapiens, UniProt Q00526)
[9] = target: CDK5 (Homo sapiens, UniProt Q00535)
[10] = target: CDKL2 (Homo sapiens, UniProt Q92772)
[11] = target: CDKL3 (Homo sapiens, UniProt Q8IVW4)
[12] = target: CHEK2 (Homo sapiens, UniProt O96017)
[13] = target: DDR1 (Homo sapiens, UniProt Q08345)
[14] = target: EGFR (Homo sapiens, UniProt P00533)
[15] = target: EGFR(G719S) (Homo sapiens, UniProt P00533, G719S)
[16] = target: EGFR(L861Q) (Homo sapiens, UniProt P00533, L861Q)
[17] = target: FGR (Homo sapiens, UniProt P09769)
[18] = target: FLT4 (Homo sapiens, UniProt P35916)
[19] = target: GSK3B (Homo sapiens, UniProt P49841)
[20] = target: HCK (Homo sapiens, UniProt P08631)
[21] = target: HUNK (Homo sapiens, UniProt P57058)
[22] = target: IKK-beta (Homo sapiens, UniProt O14920)
[23] = target: JNK2 (Homo sapiens, UniProt P45984)
[24] = target: LATS1 (Homo sapiens, UniProt O95835)
[25] = target: MAK (Homo sapiens, UniProt P20794)
[26] = target: MAPKAPK5 (Homo sapiens, UniProt Q8IW41)
[27] = target: MARK2 (Homo sapiens, UniProt Q7KZI7)
[28] = target: MEK6 (Homo sapiens, UniProt P52564)
[29] = target: MST4 (Homo sapiens, UniProt Q9P289)
[30] = target: MYO3A (Homo sapiens, UniProt Q8NEV4)
[31] = read-out: HYJ-2-002-1 (1uM) % control
[32] = read-out: CPT-1-70-1 (1uM) % control

Sequence of JNK2 (P45984 whole entry): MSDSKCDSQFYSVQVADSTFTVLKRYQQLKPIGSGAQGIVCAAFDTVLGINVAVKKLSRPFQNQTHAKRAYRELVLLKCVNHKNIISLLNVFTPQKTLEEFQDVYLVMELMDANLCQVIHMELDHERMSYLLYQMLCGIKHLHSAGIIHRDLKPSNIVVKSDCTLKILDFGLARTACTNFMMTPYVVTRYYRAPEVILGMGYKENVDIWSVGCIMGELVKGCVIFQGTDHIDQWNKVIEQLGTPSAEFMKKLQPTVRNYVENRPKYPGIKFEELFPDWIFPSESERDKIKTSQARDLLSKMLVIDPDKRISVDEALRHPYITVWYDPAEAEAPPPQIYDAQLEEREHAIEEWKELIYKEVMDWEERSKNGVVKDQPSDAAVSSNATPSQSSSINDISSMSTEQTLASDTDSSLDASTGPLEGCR
Sequence of FLT4 (P35916 whole entry): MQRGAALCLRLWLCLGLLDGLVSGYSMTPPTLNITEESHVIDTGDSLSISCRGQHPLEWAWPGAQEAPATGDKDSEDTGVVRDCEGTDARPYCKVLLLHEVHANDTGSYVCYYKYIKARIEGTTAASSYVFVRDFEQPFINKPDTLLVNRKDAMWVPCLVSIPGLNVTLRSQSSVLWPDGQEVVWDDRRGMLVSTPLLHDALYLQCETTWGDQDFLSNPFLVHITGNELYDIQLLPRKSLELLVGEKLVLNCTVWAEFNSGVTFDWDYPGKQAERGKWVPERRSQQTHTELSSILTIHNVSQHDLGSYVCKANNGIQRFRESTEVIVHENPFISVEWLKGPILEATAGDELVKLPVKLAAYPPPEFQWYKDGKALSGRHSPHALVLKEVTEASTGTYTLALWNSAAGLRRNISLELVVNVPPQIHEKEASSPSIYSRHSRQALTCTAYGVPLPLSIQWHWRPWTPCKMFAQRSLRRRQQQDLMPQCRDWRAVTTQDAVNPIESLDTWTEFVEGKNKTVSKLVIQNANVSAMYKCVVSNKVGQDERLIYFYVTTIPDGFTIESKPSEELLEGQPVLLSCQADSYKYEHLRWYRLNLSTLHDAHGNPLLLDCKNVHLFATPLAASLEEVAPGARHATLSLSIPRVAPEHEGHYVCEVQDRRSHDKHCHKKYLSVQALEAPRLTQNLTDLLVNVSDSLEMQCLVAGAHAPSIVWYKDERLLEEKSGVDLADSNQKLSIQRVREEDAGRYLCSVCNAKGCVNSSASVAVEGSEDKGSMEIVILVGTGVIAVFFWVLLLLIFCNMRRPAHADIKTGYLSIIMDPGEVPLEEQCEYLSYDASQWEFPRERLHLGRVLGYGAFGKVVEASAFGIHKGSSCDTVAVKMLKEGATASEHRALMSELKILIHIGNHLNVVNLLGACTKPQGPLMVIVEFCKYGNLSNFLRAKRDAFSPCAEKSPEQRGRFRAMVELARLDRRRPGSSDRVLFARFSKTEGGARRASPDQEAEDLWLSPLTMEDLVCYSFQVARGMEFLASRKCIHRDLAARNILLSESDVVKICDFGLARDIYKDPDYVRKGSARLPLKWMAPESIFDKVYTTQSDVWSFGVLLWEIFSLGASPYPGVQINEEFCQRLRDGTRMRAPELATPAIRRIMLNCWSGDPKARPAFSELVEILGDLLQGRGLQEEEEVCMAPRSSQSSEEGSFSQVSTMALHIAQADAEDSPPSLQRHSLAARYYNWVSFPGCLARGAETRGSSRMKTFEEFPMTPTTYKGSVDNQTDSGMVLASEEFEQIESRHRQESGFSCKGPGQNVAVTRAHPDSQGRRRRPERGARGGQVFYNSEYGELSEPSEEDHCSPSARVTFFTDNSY
Sequence of ADCK4 (Q96D53 whole entry): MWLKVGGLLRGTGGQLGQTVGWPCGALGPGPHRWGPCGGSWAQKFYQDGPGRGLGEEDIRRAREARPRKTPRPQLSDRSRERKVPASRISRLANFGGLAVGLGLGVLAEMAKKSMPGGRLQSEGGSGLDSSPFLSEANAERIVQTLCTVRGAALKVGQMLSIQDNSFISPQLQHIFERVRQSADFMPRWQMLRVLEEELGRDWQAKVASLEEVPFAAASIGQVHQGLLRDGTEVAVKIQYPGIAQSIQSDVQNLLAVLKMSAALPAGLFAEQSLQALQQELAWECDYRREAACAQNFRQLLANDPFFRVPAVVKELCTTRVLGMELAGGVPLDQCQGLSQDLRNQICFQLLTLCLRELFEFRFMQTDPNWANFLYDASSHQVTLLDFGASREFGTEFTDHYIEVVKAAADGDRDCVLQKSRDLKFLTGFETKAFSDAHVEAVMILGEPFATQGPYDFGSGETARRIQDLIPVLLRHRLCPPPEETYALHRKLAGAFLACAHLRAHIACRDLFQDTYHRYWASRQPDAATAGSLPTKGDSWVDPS
Sequence of BIKE (Q9NSY1 whole entry): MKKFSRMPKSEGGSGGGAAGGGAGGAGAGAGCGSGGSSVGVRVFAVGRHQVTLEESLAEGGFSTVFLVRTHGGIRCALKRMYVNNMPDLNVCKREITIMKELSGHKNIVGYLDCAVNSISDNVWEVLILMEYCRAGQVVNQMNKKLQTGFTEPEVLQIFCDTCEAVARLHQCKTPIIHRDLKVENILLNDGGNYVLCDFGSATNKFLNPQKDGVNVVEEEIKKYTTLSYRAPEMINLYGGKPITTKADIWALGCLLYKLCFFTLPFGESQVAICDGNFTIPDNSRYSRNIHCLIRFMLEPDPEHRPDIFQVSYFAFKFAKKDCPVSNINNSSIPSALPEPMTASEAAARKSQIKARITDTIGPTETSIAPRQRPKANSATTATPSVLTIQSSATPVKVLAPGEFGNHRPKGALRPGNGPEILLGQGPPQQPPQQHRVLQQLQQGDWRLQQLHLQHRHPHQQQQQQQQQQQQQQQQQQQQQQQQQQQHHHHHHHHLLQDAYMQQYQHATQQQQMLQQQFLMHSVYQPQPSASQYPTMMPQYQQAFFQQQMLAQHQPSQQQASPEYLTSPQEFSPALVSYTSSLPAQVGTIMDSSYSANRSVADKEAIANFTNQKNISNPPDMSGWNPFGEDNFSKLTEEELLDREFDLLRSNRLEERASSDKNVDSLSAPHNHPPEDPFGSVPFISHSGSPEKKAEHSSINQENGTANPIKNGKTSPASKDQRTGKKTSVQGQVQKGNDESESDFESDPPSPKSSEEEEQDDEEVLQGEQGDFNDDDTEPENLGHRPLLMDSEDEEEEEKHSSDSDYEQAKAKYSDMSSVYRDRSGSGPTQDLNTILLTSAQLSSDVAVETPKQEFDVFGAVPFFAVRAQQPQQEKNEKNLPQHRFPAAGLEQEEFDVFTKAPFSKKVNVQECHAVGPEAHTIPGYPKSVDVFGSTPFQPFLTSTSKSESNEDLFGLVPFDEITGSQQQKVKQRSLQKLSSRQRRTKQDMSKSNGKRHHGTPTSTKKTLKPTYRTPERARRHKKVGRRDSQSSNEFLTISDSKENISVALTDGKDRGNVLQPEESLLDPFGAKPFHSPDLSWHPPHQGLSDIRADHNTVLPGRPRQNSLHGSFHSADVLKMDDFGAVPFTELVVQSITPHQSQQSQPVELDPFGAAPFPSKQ
Sequence of EGFR(L861Q) (P00533 whole entry L861Q): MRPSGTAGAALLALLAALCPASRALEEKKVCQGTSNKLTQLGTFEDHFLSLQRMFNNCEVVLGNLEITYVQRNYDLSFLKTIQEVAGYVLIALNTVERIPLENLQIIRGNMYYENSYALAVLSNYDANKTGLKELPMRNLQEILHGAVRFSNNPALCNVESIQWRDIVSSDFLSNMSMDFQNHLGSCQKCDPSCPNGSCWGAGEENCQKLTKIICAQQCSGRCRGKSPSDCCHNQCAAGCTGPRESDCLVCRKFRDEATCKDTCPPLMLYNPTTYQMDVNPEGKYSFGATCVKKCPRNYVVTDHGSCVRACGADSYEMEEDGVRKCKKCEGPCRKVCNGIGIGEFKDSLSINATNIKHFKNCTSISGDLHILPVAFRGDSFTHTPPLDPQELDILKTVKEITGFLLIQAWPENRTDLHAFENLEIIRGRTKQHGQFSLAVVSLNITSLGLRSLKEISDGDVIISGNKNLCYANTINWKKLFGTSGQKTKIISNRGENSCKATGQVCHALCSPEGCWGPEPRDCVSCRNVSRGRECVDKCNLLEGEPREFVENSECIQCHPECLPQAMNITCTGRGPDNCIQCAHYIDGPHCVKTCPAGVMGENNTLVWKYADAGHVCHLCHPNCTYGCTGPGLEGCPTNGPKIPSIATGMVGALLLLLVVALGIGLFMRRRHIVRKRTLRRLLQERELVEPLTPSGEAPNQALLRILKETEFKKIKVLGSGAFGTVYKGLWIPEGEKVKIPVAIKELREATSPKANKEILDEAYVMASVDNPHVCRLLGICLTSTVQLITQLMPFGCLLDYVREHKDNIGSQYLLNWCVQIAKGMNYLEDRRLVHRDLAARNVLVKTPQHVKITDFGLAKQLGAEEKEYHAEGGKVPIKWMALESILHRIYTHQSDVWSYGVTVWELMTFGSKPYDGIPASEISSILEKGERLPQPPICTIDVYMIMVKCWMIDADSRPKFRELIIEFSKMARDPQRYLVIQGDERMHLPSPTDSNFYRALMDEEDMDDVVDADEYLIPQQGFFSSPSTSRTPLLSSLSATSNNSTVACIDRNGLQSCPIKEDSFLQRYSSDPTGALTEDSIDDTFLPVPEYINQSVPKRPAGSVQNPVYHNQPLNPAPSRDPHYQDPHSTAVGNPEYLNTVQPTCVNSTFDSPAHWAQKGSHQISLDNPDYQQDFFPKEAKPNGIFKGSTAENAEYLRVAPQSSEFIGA
Sequence of CDK5 (Q00535 whole entry): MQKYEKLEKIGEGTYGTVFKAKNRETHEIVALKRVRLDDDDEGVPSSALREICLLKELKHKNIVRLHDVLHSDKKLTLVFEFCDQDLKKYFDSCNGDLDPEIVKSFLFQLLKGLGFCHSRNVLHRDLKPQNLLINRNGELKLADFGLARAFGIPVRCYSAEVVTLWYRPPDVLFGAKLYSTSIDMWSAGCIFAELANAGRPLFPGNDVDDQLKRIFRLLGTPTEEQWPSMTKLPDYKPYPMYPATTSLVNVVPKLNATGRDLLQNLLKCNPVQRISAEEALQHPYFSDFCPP

CCN1CCN(Cc2ccc(NC(=O)c3ccc(C)c(CCc4cnc5[nH]ccc5c4OC)c3)cc2C(F)(F)F)CC1 [HYJ-2-002-1]
remaining activity at 1 µM [1, 31]: 100% | remaining activity at 1 µM [2, 31]: 100% | remaining activity at 1 µM [3, 31]: 75% | remaining activity at 1 µM [4, 31]: 87% | remaining activity at 1 µM [5, 31]: 96% | remaining activity at 1 µM [6, 31]: 100% | remaining activity at 1 µM [7, 31]: 100% | remaining activity at 1 µM [8, 31]: 99% | remaining activity at 1 µM [9, 31]: 100% | remaining activity at 1 µM [10, 31]: 2.3% | remaining activity at 1 µM [11, 31]: 34% | remaining activity at 1 µM [12, 31]: 63% | remaining activity at 1 µM [13, 31]: 0% | remaining activity at 1 µM [14, 31]: 5% | remaining activity at 1 µM [15, 31]: 1.8% | remaining activity at 1 µM [16, 31]: 0.85% | remaining activity at 1 µM [17, 31]: 0.75% | remaining activity at 1 µM [18, 31]: 3.8% | remaining activity at 1 µM [19, 31]: 88% | remaining activity at 1 µM [20, 31]: 0.55% | remaining activity at 1 µM [21, 31]: 79% | remaining activity at 1 µM [22, 31]: 0.3% | remaining activity at 1 µM [23, 31]: 1.8% | remaining activity at 1 µM [24, 31]: 100% | remaining activity at 1 µM [25, 31]: 100% | remaining activity at 1 µM [26, 31]: 100% | remaining activity at 1 µM [27, 31]: 64% | remaining activity at 1 µM [28, 31]: 91% | remaining activity at 1 µM [29, 31]: 98% | remaining activity at 1 µM [30, 31]: 59%

CN1CCN(c2ccc(Nc3nc(Oc4ccc(NC(=O)CCl)cc4)c4cc[nH]c4n3)cc2)CC1 [CPT1-70-1]
remaining activity at 1 µM [1, 32]: 91% | remaining activity at 1 µM [2, 32]: 100% | remaining activity at 1 µM [3, 32]: 38% | remaining activity at 1 µM [4, 32]: 32% | remaining activity at 1 µM [5, 32]: 18% | remaining activity at 1 µM [6, 32]: 91% | remaining activity at 1 µM [7, 32]: 100% | remaining activity at 1 µM [8, 32]: 100% | remaining activity at 1 µM [9, 32]: 100% | remaining activity at 1 µM [10, 32]: 11% | remaining activity at 1 µM [11, 32]: 100% | remaining activity at 1 µM [12, 32]: 38% | remaining activity at 1 µM [13, 32]: 79% | remaining activity at 1 µM [14, 32]: 63% | remaining activity at 1 µM [15, 32]: 34% | remaining activity at 1 µM [16, 32]: 18% | remaining activity at 1 µM [17, 32]: 4.2% | remaining activity at 1 µM [18, 32]: 81% | remaining activity at 1 µM [19, 32]: 98% | remaining activity at 1 µM [20, 32]: 85% | remaining activity at 1 µM [21, 32]: 78% | remaining activity at 1 µM [22, 32]: 100% | remaining activity at 1 µM [23, 32]: 13% | remaining activity at 1 µM [24, 32]: 77% | remaining activity at 1 µM [25, 32]: 100% | remaining activity at 1 µM [26, 32]: 98% | remaining activity at 1 µM [27, 32]: 10% | remaining activity at 1 µM [28, 32]: 55% | remaining activity at 1 µM [29, 32]: 49% | remaining activity at 1 µM [30, 32]: 88%
